Test results reported in article PMC5515432, “A human tissue-based functional assay platform to evaluate the immune function impact of small molecule inhibitors that target the immune system” (PLoS ONE, 2017).
Values joined by “and” are separate entries in the source; they are usually repeats but may differ in a detail not shown here. Equal values may be shown once. “Also recorded” adds a separate entry of the source. Read-outs that look alike come from different tables or passages of the source.

Experiments:
[1] = tested on: TLR9; test: TLR9 response: ODN 2395 induced IL-6 production in PBMCs
Procedure: (§3) To evaluate TLR3 responses, frozen PBMCs were thawed in culture medium. A total of 2x10^5 PBMCs were seeded per well in a 96-well tissue culture plate for the assay. One hour following incubation with compounds at 37°C, 5% CO2, the PBMCs were treated with a PBMC donor-specific EC80 concentration of the high molecular weight Poly I:C (TLR3 ligand, Invivogen, San Diego, CA) or appropriate controls, and were allowed to incubate at 37°C, 5% CO2 for 24 hours. Twenty four hours following incubation, 120μl of the cell culture supernatant was removed from the cell culture plates and frozen at -80°C until further analysis. To evaluate TLR7 and TLR9 responses, PBMCs were thawed in culture medium, reconstituted to a concentration of 3x10^6 cells/ml, dispensed into ultra-low attachment flasks and incubated at 37°C, 5% CO2 for 24h with continuous rocking. The PBMCs were harvested from the flask, seeded at a density of 2x10^5 PBMCs/well in compound-dispensed assay plates and allowed to incubate at 37°C, 5% CO2 for 24 hours. One hour following incubation with compounds at 37°C, 5% CO2, the PBMCs were treated with a PBMC donor-specific EC80 concentration of high molecular weight CL264 (TL7 ligand, Invivogen, San Diego, CA) or ODN 2395 (TLR9 ligand, Invivogen, San Diego, CA), or appropriate controls, and were allowed to incubate at 37°C, 5% CO2 for 24 hours. Twenty four hours following incubation, 120μl of the cell culture supernatant was removed from the cell culture plates and frozen at -80°C until further analysis. The cell culture supernatants were analyzed for IP-10 or IL-6 levels using MSD kits (Meso Scale Discovery, Rockville, MD) according to manufacturer’s protocols.
(§4) The stimulant was the chemical agent that was used to elicit the response in the assay (i.e., TLR ligands in the TLR assay). We used EC80 stimulation conditions for evaluating the impact of compounds in assays with titrable stimulants. To account for donor-to-donor variability in PBMCs, we used donors that whose EC80 values were within a 3-fold range determined by dose-response experiments with the stimulants.

[2] = tested on: TLR3; test: TLR3 response: Poly I:C induced IP-10 production in PBMCs
Procedure: as §3, §4

[3] = tested on: TLR7; test: TLR7 response: TLR7 agonist induced IL-6 production in PBMCs; conditions: for TLR7 Max inhibition: sheet 'TLR7', % maximal inhibition = 'top' of curve fit
Procedure: as §3, §4

[4] = tested on: TLR3
Procedure: as §3, §4

[5] = tested on: TLR7
Procedure: as §3, §4

[6] = tested on: NK cell mediated killing of K562 cells
Procedure: (§5) A commercially available kit was used to asses NK cell killing (NK Test, Glycotope Biotechnology). Human PBMCs (effector cells) resuspended in culture medium were plated in a round bottom, sterile poly propylene 96 well plate (Corning #3359) and incubated with compounds (final DMSO concentration 0.1%) for 1 hour. Membrane labeled GFP positive K562 cells (target cells) were then added to the effector cells at a 1:50 target–effector ratio. Cells were centrifuged for 3 minutes at 120xg to ensure cell-cell contact and incubated at 37°C, 5% CO2 for 2 hours. Cells were then resuspended in propidium iodide staining solution and incubated at room temperature for 5 minutes. A total of 10,000 target cell events were acquired on a BD Fortessa flow cytometer, and the data was analyzed by FACSDiva or Flowjo.
(§6) We used EC80 stimulation conditions for evaluating the impact of compounds in assays with titrable stimulants. To account for donor-to-donor variability in PBMCs, we used donors that whose EC80 values were within a 3-fold range determined by dose-response experiments with the stimulants. For the NK cell killing assay, we used the conditions and donors that gave the best assay window (i.e., 1:50 target:effector ratio). For the T cell stimulation assay, we performed a dose-titration of αCD3 and αCD28 to determine the stimulation conditions used in this assay. […] Every assay plate contained samples that would elicit a minimal response (no stimulant), maximal response (stimulant with no compounds), compound dose-response (stimulant with compounds) and positive control (stimulant with compound that is known to inhibit the assay). We evaluated the impact of small molecule inhibitors in 8–10 different doses for every PBMC sample in every assay. The values obtained from multiple PBMC donors were compiled together to calculate the inhibitory concentrations of the compounds in a given assay.
(§7) Each assay contained samples that would elicit a minimal and a maximal response, which defined the assay window.

[7] = tested on: ROS production by neutrophils in human whole blood; test: Phagocyte oxidative burst (Phagoburst), neutrophil ROS production in whole blood; assay type: cell-based; conditions: for IC50: sheet 'IC50 values', whole blood, 10 min, corrected for plasma protein binding, unit inferred, Assay control = DPI, read-out: PB_Neut IC50
Procedure: (§1) Phagocytic oxidative burst was assessed in whole blood samples using the Phagoburst kit (Orpegen Biopharma, #10–0200). The assay was modified to accommodate a 96 well format. Briefly, 50 μL human whole blood was mixed well with compounds (0.1% final DMSO concentration) and incubated for 30 minutes at 37°C, 5% CO2. Then, samples were incubated on ice for 5 minutes, followed by the addition of 10uL of reagent B (opsonized bacteria). Samples were then mixed well and incubated for 10 minutes in a 37°C water bath. Next, 10μL of reagent E (substrate solution) was added to the samples, mixed well and incubated for an additional 10 minutes in the 37°C water bath. Then, 150uL of reagent F (lysis solution) was added to all wells, mixed well and incubated for 20 minutes at room temperature. Samples were washed twice with reagent A and incubated with 90μL of reagent G (DNA staining solution) for 10 minutes, on ice and protected from light. The samples were analyzed in a BD Fortessa flow cytometer. Cells were gated based on Forward and Side scatter properties and high content DNA. A total of 10,000 cell events (high content DNA) were collected, analyzed using FACSDiva or Flowjo and the oxidative burst was measured by the geometric mean fluorescence intensity (GMFI) of the ROS detection dye in the assay (Figure C in S2 Fig).
(§2) Compounds were spiked at 1 μM in plasma. […] Following centrifugation, samples were analyzed using LC-MS/MS. […] A similar methodology was followed for media binding.

[8] = tested on: TLR9
Procedure: as §3, §4

[9] = tested on: NK cell mediated killing of K562 cells; test: NK cell killing function (NK Test, PBMC effectors, K562 target cells)
Procedure: as §5, §6, §7

[10] = tested on: CD8+ T cell proliferation in human PBMCs
Procedure: (§8) Peripheral blood mononuclear cells in culture media were pre-treated with compounds (0.1% final DMSO concentration) for 45 minutes at 37°C, 5% CO2 and then transferred into anti-CD3 (1 μg/mL, OKT3, eBioscience, San Diego, CA) coated plate containing soluble anti-CD28 (1 μg/mL, Fitzgerald, Acton, MA). Twenty four hours after stimulation, an aliquot of cell culture supernatant was collected and evaluated for IL-2 production (MesoScale Discovery, Rockville, MD) according to manufacturer’s instructions. The remaining culture was allowed to continue incubation for an additional 48 hours. To evaluate proliferation, Click-iT EdU Alexa Flour 647 Assay Kit (Invitrogen, Carlsbad, CA) was used according to manufacturer’s instructions, and proliferation was evaluated at 72 hours following stimulation. The cells were stained with flourochrome conjugated antibodies against CD3, CD4 and CD8 and analyzed in a BD Fortessa flow cytometer by acquiring 8–10,000 events. The data was analyzed by FACSDiva or FlowJo and reported as the percentage of EdU^+CD3^+CD4^+ and EdU^+CD3^+CD8^+ lymphocytes (Figure A in S2 Fig).
(§9) The stimulant was the chemical agent that was used to elicit the response in the assay (i.e., TLR ligands in the TLR assay). We used EC80 stimulation conditions for evaluating the impact of compounds in assays with titrable stimulants. To account for donor-to-donor variability in PBMCs, we used donors that whose EC80 values were within a 3-fold range determined by dose-response experiments with the stimulants. For the NK cell killing assay, we used the conditions and donors that gave the best assay window (i.e., 1:50 target:effector ratio). For the T cell stimulation assay, we performed a dose-titration of αCD3 and αCD28 to determine the stimulation conditions used in this assay. For the phagocyte oxidative burst assay, since we could not screen human whole blood for selecting best responders, we followed the manufacturer’s protocol on 8–10 different human whole blood samples. Every assay plate contained samples that would elicit a minimal response (no stimulant), maximal response (stimulant with no compounds), compound dose-response (stimulant with compounds) and positive control (stimulant with compound that is known to inhibit the assay). We evaluated the impact of small molecule inhibitors in 8–10 different doses for every PBMC sample in every assay. The values obtained from multiple PBMC donors were compiled together to calculate the inhibitory concentrations of the compounds in a given assay.
as §7

[11] = tested on: IL-2 production by T cells in human PBMCs; test: T cell activation: IL-2 production in anti-CD3 + anti-CD28 stimulated PBMCs (MSD, 24 h); conditions: for impact on IL-2 production: PBMC, anti-CD3 + anti-CD28, 24 h; for Tcell_IL2 Max inhibition: sheet 'Tcell_IL2', % maximal inhibition = 'top' of curve fit
Procedure: as §8, §9, §7

[12] = tested on: CD8+ T cell proliferation in human PBMCs; test: CD8+ T cell proliferation in anti-CD3 + anti-CD28 stimulated PBMCs (EdU flow cytometry, 72 h); conditions: for impact on CD8+ T cell proliferation: PBMC, anti-CD3 + anti-CD28, 72 h
Procedure: as §8, §9, §7

[13] = tested on: CD4+ T cell proliferation in human PBMCs
Procedure: as §8, §9, §7

[14] = tested on: CD4+ T cell proliferation in human PBMCs; test: CD4+ T cell proliferation in anti-CD3 + anti-CD28 stimulated PBMCs (EdU flow cytometry, 72 h); conditions: for impact on CD4+ T cell proliferation: PBMC, anti-CD3 + anti-CD28, 72 h
Procedure: as §8, §9, §7

[15] = tested on: IL-2 production by T cells in human PBMCs
Procedure: as §8, §9, §7

[16] = tested on: gene expression of stimulated human PBMCs; test: Nanostring mRNA profiling in the T cell stimulation assay (anti-CD3 + anti-CD28 PBMCs); assay type: cell-based; conditions: for impact on gene expression profile of stimulated PBMCs: 24 h after anti-CD3 and anti-CD28 stimulation, n = 3 donors
Procedure: Cell pellets from experiments were lysed in RLT buffer and prepared according to standard protocol recommended by NanoString Technologies. Briefly, lysates were co-incubated with capture and reporter probes (NanoString Technologies Immunology v2 Codeset) in a thermal cycler set at 65°C for 24 hours. Samples were processed and analyzed with a Generation 2 nCounter. Counts from samples were normalized using housekeeping genes scored on the Nanostring platform. Samples with counts less than 20 were excluded from further analysis. The Matlab function ttest2 was used to determine p-values for log2 fold changes, and the function agglomerative was used to perform clustering.

[17] = tested on: ROS production by monocytes in human whole blood; test: Phagocyte oxidative burst (Phagoburst), monocyte ROS production in whole blood; assay type: cell-based
Procedure: as §1, §2

[18] = human whole blood, opsonized bacteria

Cc1ccc(S(=O)(=O)/C=C/C#N)cc1 [BAY-11, BAY 11–7082]
effect on TLR9 response, ODN 2395 induced IL-6 [1]: fully inhibited this response | effect on TLR3 response, Poly (I:C) induced IP-10 [2]: fully inhibited the response | effect on TLR7 response, IL-6 production [3]: fully inhibited this response

CC(C)(C)c1nc2c3cc[nH]c(=O)c3c3cc(F)ccc3c2[nH]1 [JAK inhibitor 1]
IC50 [4]: 61.1 nM | IC50 [5]: 547 nM | IC50 [6]: 65.9 µM | IC50 ([7]; opsonized bacteria): 354 nM | IC50 [8]: 26 nM

C/C1=C/C(=O)O[C@@H]2C[C@@H](CC[C@H](C)/C=C\C=C\CC1)O[C@@](O)([C@@H]1CSC(=O)N1)C2 [Latrunculin A, latrunculin A]
effect on NK cell killing activity [9]: completely inhibited

Cc1oncc1C(=O)Nc1ccc(C(F)(F)F)cc1 [Leflunomide, leflunomide]
IC50 [6]: 48.1 µM | IC50 [8]: 25.4 nM and 25.9 nM

CN(Cc1cnc2nc(N)nc(N)c2n1)c1ccc(C(=O)N[C@@H](CCC(=O)O)C(=O)O)cc1 [Methotrexate]
IC50 [10]: 10.5 nM | impact on IL-2 production [11]: marginal but variable impact | Tcell_IL2 Max inhibition [11]: 27.8 | maximal inhibition of CD8+ T cell proliferation [12]: around 30% | IC50 [13]: 5.88 nM | maximal inhibition of CD4+ T cell proliferation [14]: around 30% | IC50 [15]: 4960 nM | impact on gene expression profile of stimulated PBMCs ([16]; 1μM): minimal impact on restoring the gene expression profile

COc1c(C)c2c(c(O)c1C/C=C(\C)CCC(=O)OCCN1CCOCC1)C(=O)OC2 [Mycophenolate Mofetil, mycophenolate mofetil]
impact on IL-2 production [11]: inhibited | Tcell_IL2 Max inhibition [11]: 49.64 | impact on CD8+ T cell proliferation [12]: inhibited | impact on CD4+ T cell proliferation [14]: inhibited | IC50 [8]: 2170 nM and 3060 nM | IL-2 mRNA expression ([16]; 1μM, 24 h): partially reduced | impact on gene expression profile of stimulated PBMCs ([16]; 1μM): minimal impact on restoring the gene expression profile

C[C@]12C=CC(=O)C=C1CC[C@@H]1[C@@H]2[C@@H](O)C[C@@]2(C)[C@H]1CC[C@]2(O)C(=O)CO [Prednisolone, prednisolone]
IC50 [4]: 921 nM and 990 nM | effect on TLR9 response, ODN 2395 induced IL-6 [1]: dose-dependent inhibition; also recorded: potent in inhibiting TLR9 responses | IC50 [5]: 31.7 nM and 34.1 nM | IC50 [6]: 21.5 µM | impact on IL-2 production [11]: inhibited only IL-2 production | Tcell_IL2 Max inhibition [11]: 71.87 | TLR7 Max inhibition [3]: 93.77 | impact on CD8+ T cell proliferation [12]: did not have an impact | impact on CD4+ T cell proliferation [14]: did not have an impact | IC50 [8]: 33.2 nM and 35.7 nM | IC50 [15]: 75.5 nM | IL-2 mRNA expression ([16]; 1μM, 24 h): partially reduced | IL-4 mRNA expression ([16]; 1μM, 24 h): reduced | IL-13 mRNA expression ([16]; 1μM, 24 h): reduced | impact on gene expression profile of stimulated PBMCs ([16]; 1μM): modified the gene expression profile of stimulated samples similar to that of unstimulated cells | IL-2 mRNA expression, time and dose course ([16]; three concentrations, 3h, 6h and 24h following stimulation): impacted in a time- and dose-dependent manner

CO[C@H]1C[C@@H]2CC[C@@H](C)[C@@](O)(O2)C(=O)C(=O)N2CCCC[C@H]2C(=O)O[C@H]([C@H](C)C[C@@H]2CC[C@@H](O)[C@H](OC)C2)CC(=O)[C@H](C)/C=C(\C)[C@@H](O)[C@@H](OC)C(=O)[C@H](C)C[C@H](C)/C=C/C=C/C=C/1C [Rapamycin, rapamycin]
IC50 ([17]; Homo sapiens, Monocyte, 10 min, sheet 'IC50 values', whole blood, opsonized bacteria, 10 min, corrected for plasma protein binding, unit inferred, Assay control = DPI, read-out: PB_Mono IC50): 128 nM | reduction / maximal inhibition of monocyte ROS production [17, 18]: 20–40% | PB_Mono Max inhibition ([17]; sheet 'PB_Mono', % maximal inhibition = 'top' of curve fit): 13.41 | IC50 ([7]; Homo sapiens, Neutrophil, opsonized bacteria): 601 nM | reduction / maximal inhibition of neutrophil ROS production [7, 18]: 20–40% | PB_Neut Max inhibition ([7]; sheet 'PB_Neut', % maximal inhibition = 'top' of curve fit): 36.53 | impact on IL-2 production [11]: did not have an impact | TLR7 Max inhibition [3]: 72.11 | impact on CD8+ T cell proliferation [12]: did not have an impact | impact on CD4+ T cell proliferation [14]: did not have an impact

c1ccc([I+]c2ccccc2)cc1 [diphenyliodonium chloride]
effect on monocyte ROS production [17, 18]: completely inhibit | effect on neutrophil ROS production [7, 18]: completely inhibit
